Like-named read-outs stand apart in the source and are kept apart here. Some results are limits rather than exact numbers.

Data set [1] is classed as in vivo, rats. On the procedure: The method is that described by Harris et al. (J. Pharmcol. Exp. Ther. 143 (1964) 141-148).
Male rats are used which have a weight of about 150-200 g and which have not been fasting. A point is chosen on the tail and this is irradiated by a heat source (75° C.) and the time (in seconds) for which the animal remains without moving its tail is measured.
A maximum period of time under the heat source of 8 seconds is chosen after which the animal is, in any case, removed in order to avoid tissue damage. The measurement is effected before (controls) and after treatment with the drugs. […] The percentage variation is calculated for each individual animal by the following formula: [formula] (time measurements are in seconds)
The measurements are carried out 10, 20, 30, 45, 60 and 90 minutes after treatment with the analgesics.

Data set [2] is described as follows: Randall-Selitto test: analgesia produced by opiates. The following applies: for t (vs controls): Student t. The data set is classed as in vivo, rats. On the procedure:
Analgesic activity in the Randall-Selitto test
The method is that described by Winters et al (J. Pharmacol. Exp. Ther. 150, 165 (1965). Groups of five female rats having an average weight of about 100 g and which have not been fasting are used. A 20% saline solution of yeast is administered into the sub-plantar region of the right hind leg.
The compounds to be tested are administered s.c. 2 hours after the injection of inflammatory agent 0.5 hours after the administration of the drugs, the pain threshold is determined by measuring the pressure needed to induce a flight reaction in the animal. The results obtained are given in Table No. 3 which records the groups treated and the doses administered, the pain threshold expressed as a pressure exerted in mmHg to cause the pain stimulus (average±S.E.) and a statistical evaluation of the results of the various treated groups by the Student "t" test.

Another data set is described as follows: in vivo. As to conditions: mouse, sc. The procedure: The drug (or drugs) under examination was administered sub-cutaneously. The animals were kept under observation for 15 days after the administration.
Ten animals were used for each dose.

Data set [3] can be described thus: Hot plate test: potentiation of analgesic activity of opiates. The following applies: morphine 2.5 or methadone 1 mg/kg s.c. alone. The format is in vivo, rats. The procedure:
The method is that described by Eddy et al. (J. Pharmac. Exp. Therm. 107, 385 (1953)).
Groups of five male rats having a weight of about 150 g and which have not been fasting are used.
The animals are placed on a metal plate which is on the bottom of a transparent cylinder heated to 55°±1° C. by an azeotropic boiling mixture (1:1 acetone-ethyl formate). The time which passes between the moment at which the animal is placed on the hot plate and the moment at which it licks its feet or tries to jump out of the cylinder is defined as the reaction time. The control reaction time is measured 10 and 5 minutes before the administration of the drugs and 10, 20, 30, 45, 60, 90 minutes afterwards. The animals are left on the plate for a maximum period of 30 seconds. The response to the administration of the product is considered positive if at least a doubling of the normal reaction time is seen. The results obtained are given in Table 2 which records the groups treated, the doses administered and the stay times on the plate expressed as the number of positive responses over the number treated.
(In hot-plate and tail-flick tests a longer latency is read as antinociception.)

The format of data set [4] is in vivo, rats. The following applies: morphine 5 mg/kg i.p. repeated. The procedure: Activity of proglumide as an antagonist to the tolerance induced by opiates
Groups of five male rats having a weight of about 200-250 g were used.
The determination of the pain threshold was effected 1, 3, 6, 9 and 12 hours after the first treatment by the Tail Flick test.
The data given in Table 5 indicate the percentage variations in the latency (appearance of pain) before and after treatment with the drugs.

Data set [5] in a line: Potentiation of analgesic effect of enkephalinamide (DALA) i.c.v. (Tail Flick test). The data set is classed as in vivo, rats. As to conditions: alone i.c.v.: proglumide 1 or DALA 10 μg/kg. On the procedure: Potentiation of the analgesic activities of enkephalins induced by proglumide
In order to check one of the possible mechanisms for the action of proglumide, that is its possible inhibition of the enzymatic degradation of endogenous enkephalins, the following experiment was carried out:
A cannula was implanted in the right lateral ventricle of male rats having a weight of 150-200 g (groups of five animals were used) in order to allow the intracerebroventricular (I.C.V.) administration of drugs according to the method of Noble et al (Life Science 6, (1970) 281-291). […]

The mark [6] stands for this setting: higher dose alone s.c.: morphine 2, propoxyphene 25, pentazocine 6 mg/kg.
The mark [7] stands for this setting: lower dose alone s.c.: morphine 0.5, propoxyphene 7.5, pentazocine 2 mg/kg.

With `CCC(=O)O[C@](Cc1ccccc1)(c1ccccc1)[C@H](C)CN(C)C` [Dextropropoxyphene], in data set [1] (rat, in vivo), the “X, potency ratio with respect to morphine = 1” value turned out to be 1 and the “average percentage variation in latency M (1-90') ± S.E.” value is 33.48 ± 7.16. In addition, in data set [2] (setting [6]), the “t (vs controls)” value was found to be 3.71, the “P (vs controls)” value was below 0.01 and the “Pain threshold (mmHg) M ± S.E.” value was determined as 50.7 ± 10.02 mmHg. Moreover, in data set [2] (setting [7]), the “t (vs controls)” value is recorded as 3.34, the “P (vs controls)” value is recorded as below 0.05 and the “Pain threshold (mmHg) M ± S.E.” value stood at 37.5 ± 7.12 mmHg.

Compound `CCC(=O)C(CC(C)N(C)C)(c1ccccc1)c1ccccc1` (centres unmarked) [Methadone] yielded an LD50 at 360 h in “in vivo” of 53.5 mg/kg. Also, the “positive responses / treated” value in data set [3] (10 min) is recorded as 1/5; in data set [3] (20 min) it was 2/5; in data set [3] (30 min), 1/5; in data set [3] (45 min) it was 2/5; in data set [3] (60 min) it was 1/5; in data set [3] (90 min), 1/5. Besides, in data set [3] (total over 10-90 min), the “A* = Tot. positive X/30” value came out at 8.

`CN1CC[C@]23c4c5ccc(O)c4O[C@H]2[C@@H](O)C=C[C@H]3[C@H]1C5` [Morphine]: the “percentage variation in the latency of the pain sensation” value in data set [1] (10 min, morphine 3 or dextropropoxyphene 6 mg/kg alone) stood at 29.0 ± 20.4%; in data set [1] (20 min, morphine 3 or dextropropoxyphene 6 mg/kg alone), 35.0 ± 9.4%; in data set [1] (30 min, morphine 3 or dextropropoxyphene 6 mg/kg alone), 71.4 ± 12.1%; in data set [1] (45 min, morphine 3 or dextropropoxyphene 6 mg/kg alone), 49.3 ± 21.3%; in data set [1] (60 min, morphine 3 or dextropropoxyphene 6 mg/kg alone) it was 38.8 ± 23.9%; in data set [1] (90 min, morphine 3 or dextropropoxyphene 6 mg/kg alone), 38.3 ± 20.1%. Moreover, the “average percentage variation in latency M (1-90') ± S.E.” value in data set [1] (mean 1-90 min, morphine 3 or dextropropoxyphene 6 mg/kg alone) is 43.62 ± 7.37%. For the same compound, the “percentage variation in the latency” value came out at 58.98 ± 16.3% in data set [4] (1 h); 67.58 ± 11.1% in data set [4] (3 h); 30.0 ± 15.3% in data set [4] (6 h); 38.62 ± 8.7% in data set [4] (9 h); 23.1 ± 8.6% in data set [4] (12 h).

Regarding `CC(C)=CCN1CCC2(C)c3cc(O)ccc3CC1C2C` (centres unmarked) [Pentazocine], in data set [2] (setting [6]), the “t (vs controls)” value worked out at 6.63, the “P (vs controls)” value is reported as below 0.001 and the “Pain threshold (mmHg) M ± S.E.” value came out at 48.6 ± 4.93 mmHg. Also, in data set [2] (setting [7]), the “t (vs controls)” value is recorded as 2.50, the “P (vs controls)” value was below 0.05 and the “Pain threshold (mmHg) M ± S.E.” value came out at 27.9 ± 5.71 mmHg.

Regarding D-ala-methionine-enkephalinamide [DALA], the “% variation in the latency to pain” value in data set [5] (5 min) is reported as 61.06 ± 11.8%; in data set [5] (15 min), 51.04 ± 4.6%; in data set [5] (30 min), 40.00 ± 9.04%; in data set [5] (45 min), 25.24 ± 7.7%; in data set [5] (60 min), 14.68 ± 9.2%; in data set [5] (90 min), 10.06 ± 8.3%. Besides, the “Average (0 → 90) % variation in the latency to pain” value in data set [5] is 33.7 ± 8.3%.

As a reminder, the LD50 is the dose expected to kill half of the subjects tested.
